Assay results reported in ChEMBL document CHEMBL1150213, “Protein-tyrosine kinase inhibition: mechanism-based discovery of antitumor agents” (J Nat Prod, 1992).
≈ marks a conversion by molar mass, not a printed value. Where a SMILES comes first, the peptide text is derived from it. The star is where a group is joined. CH2Cl = ClC*

Experiments:
[1] = molecular target: T1, Tyrosine-protein kinase transforming protein Abl (Abelson murine leukemia virus, UniProt P00521)
T1 sequence (P00521 whole entry): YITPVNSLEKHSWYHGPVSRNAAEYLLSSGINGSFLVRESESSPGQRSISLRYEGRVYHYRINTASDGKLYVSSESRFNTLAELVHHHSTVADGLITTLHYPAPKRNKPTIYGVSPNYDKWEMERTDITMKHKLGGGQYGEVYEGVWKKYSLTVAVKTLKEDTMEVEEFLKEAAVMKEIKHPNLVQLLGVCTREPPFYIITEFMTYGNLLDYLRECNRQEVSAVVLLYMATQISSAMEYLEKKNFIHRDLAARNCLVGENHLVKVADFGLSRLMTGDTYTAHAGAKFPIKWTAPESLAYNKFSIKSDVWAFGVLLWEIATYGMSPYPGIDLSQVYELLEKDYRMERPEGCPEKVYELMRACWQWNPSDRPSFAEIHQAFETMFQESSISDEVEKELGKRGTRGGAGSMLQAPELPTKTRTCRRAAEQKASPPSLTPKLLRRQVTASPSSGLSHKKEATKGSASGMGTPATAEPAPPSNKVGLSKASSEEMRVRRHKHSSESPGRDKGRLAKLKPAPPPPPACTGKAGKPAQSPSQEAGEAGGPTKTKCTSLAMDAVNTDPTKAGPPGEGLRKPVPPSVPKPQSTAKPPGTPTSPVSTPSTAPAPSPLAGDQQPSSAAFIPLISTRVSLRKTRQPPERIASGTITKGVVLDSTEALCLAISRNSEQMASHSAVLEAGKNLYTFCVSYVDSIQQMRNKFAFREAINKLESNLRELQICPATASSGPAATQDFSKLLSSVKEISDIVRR
Description: Inhibition of Abelson murine leukemia virus p60 v-abl

[2] = Inhibition of p40 tyrosine kinase
[3] = molecular target: T2, Epidermal growth factor receptor (Homo sapiens, UniProt P00533)
T2 sequence (P00533 whole entry): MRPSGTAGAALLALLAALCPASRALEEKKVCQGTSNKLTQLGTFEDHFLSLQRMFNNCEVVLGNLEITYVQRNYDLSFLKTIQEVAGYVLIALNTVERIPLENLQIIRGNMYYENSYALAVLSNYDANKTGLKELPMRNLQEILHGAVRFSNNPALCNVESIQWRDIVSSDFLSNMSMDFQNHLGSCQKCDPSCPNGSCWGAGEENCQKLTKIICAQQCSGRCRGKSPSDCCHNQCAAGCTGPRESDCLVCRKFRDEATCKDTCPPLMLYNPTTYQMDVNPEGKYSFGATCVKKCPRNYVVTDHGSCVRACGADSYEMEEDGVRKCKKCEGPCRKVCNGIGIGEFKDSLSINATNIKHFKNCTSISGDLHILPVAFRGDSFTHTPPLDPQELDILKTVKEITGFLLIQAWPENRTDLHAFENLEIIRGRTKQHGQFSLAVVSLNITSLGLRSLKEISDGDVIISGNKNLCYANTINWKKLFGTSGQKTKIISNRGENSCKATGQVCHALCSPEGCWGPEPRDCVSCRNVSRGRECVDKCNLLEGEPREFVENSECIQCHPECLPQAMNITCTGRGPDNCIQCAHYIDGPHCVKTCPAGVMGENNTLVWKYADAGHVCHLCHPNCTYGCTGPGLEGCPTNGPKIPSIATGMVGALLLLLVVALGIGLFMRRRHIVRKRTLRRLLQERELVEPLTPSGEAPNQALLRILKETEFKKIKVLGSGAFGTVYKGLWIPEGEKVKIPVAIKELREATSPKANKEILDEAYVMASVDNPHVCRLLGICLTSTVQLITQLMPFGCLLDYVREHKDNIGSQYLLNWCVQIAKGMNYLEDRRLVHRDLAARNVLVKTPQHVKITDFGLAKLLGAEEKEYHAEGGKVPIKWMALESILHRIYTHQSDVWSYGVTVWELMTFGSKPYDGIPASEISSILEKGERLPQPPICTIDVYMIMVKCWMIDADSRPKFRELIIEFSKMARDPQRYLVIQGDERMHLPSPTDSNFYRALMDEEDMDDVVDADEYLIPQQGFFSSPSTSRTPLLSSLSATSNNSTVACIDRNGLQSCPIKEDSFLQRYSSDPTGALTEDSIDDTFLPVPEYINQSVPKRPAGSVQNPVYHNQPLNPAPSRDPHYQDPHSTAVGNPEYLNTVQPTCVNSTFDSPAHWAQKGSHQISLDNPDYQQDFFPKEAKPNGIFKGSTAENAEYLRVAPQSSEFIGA

[4] = molecular target: T2, Epidermal growth factor receptor; test: Inhibition of EGFR in human A431 cells at 400 nmol/mg protein in presence of EGF; type: cell-based; settings: A-431
[5] = molecular target: T2, Epidermal growth factor receptor; test: Inhibition of EGFR in human A431 cells at 400 nmol/mg protein in absence of EGF; type: cell-based; settings: A-431
[6] = molecular target: Proto-oncogene tyrosine-protein kinase Src (Homo sapiens, UniProt P12931)
Sequence of Proto-oncogene tyrosine-protein kinase Src (P12931 2-536 limits assumed): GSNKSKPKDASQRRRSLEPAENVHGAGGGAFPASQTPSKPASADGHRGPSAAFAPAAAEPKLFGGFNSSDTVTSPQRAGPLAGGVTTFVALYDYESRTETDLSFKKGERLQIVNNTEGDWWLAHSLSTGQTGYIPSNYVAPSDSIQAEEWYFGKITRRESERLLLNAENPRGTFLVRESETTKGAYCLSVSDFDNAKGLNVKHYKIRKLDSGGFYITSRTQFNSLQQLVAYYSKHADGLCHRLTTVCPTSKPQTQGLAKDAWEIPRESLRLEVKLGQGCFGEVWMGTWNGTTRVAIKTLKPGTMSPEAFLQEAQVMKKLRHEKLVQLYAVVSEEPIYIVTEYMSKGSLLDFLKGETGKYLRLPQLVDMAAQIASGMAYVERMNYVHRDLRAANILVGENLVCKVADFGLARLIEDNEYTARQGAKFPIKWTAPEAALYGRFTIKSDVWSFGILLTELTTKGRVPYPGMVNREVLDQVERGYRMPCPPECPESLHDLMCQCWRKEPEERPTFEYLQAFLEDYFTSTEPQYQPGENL
Description: Inhibition of p60c-src expressed in chick embryo fibroblast

[7] = molecular target: T2, Epidermal growth factor receptor; remark: listed apart in the source

## Nc1ncnc2c1ncn2[C@@H]1O[C@H](COP(=O)(O)OP(=O)(O)OP(=O)(O)OP(=O)(O)Oc2ccccc2)[C@@H](O)[C@H]1O
[1]
  IC50: 400 µM

## O=C1C[C@@H](c2ccc(O)cc2)Oc2cc(O)cc(O)c21 [NARINGENIN]
[2]
  IC50: 8 ×10¹ ug/ml

## Oc1cc(O)cc(/C=C/c2ccc(O)c(O)c2)c1 [PICEATANNOL]
[2]
  IC50: 4 µg/mL (≈ 16.4 µM)

## CC(=O)NC(Cc1ccc(NP(=O)(O)OP(=O)(O)OP(=O)(O)OC[C@H]2O[C@@H](n3cnc4c(N)ncnc43)[C@H](O)[C@@H]2O)cc1)C(N)=O (some centres not stated)
[1]
  IC50: 40 µM

## O=C1c2ccc(O)cc2O[C@H](c2ccc(O)c(O)c2)[C@H]1O [FUSTIN]
[2]
  IC50: > 5 ×10² ug/ml

## O=C(O)c1ccc(S(=O)(=O)Oc2ccc(/C=C/[N+](=O)[O-])cc2)c(O)c1
[3]
  IC50: 0.3 µM
[1]
  IC50: 100 µM

## Nc1ncnc2c1ncn2[C@@H]1O[C@H](COC(=O)c2ccc(S(=O)(=O)Oc3ccccc3)cc2)[C@@H](O)[C@H]1O
[1]
  IC50: 200 µM

## COC(=O)c1ccc(S(=O)(=O)Oc2ccc(/C=C/[N+](=O)[O-])cc2)cc1O
[3]
  IC50: 2 µM
[1]
  IC50: > 100 µM

## Nc1ncnc2c1ncn2[C@@H]1O[C@H](COC(=O)c2ccc(S(=O)(=O)Nc3ccccc3)cc2)[C@@H](O)[C@H]1O
[1]
  IC50: 20 µM

## Nc1ncnc2c1ncn2[C@@H]1O[C@H](COC(=O)c2ccc(S(=O)(=O)F)cc2)[C@@H](O)[C@H]1O
[1]
  IC50: 200 µM

## CC(=O)N[C@@H](Cc1ccccc1)C(=O)NCC(=O)N[C@@H](C)C(=O)N[C@@H](CC(C)C)C(=O)CCl (Ac-FGAL-CH2Cl)
[4]
  inhibition: 29%
[5]
  inhibition: 59%

## CC(C)(C)OC(=O)NCCNC(=O)c1ccc(S(=O)(=O)Oc2ccc(/C=C/[N+](=O)[O-])cc2)cc1
[3]
  IC50: 1 µM
[1]
  IC50: 100 µM

## O=C(CCl)[C@H](Cc1c[nH]c2ccccc12)NOCc1ccccc1
[4]
  inhibition: 10%
[5]
  inhibition: 6%

## O=C(O)c1ccc(S(=O)(=O)Oc2ccc(/C=C/[N+](=O)[O-])cc2)cc1O
[3]
  IC50: 0.05 µM
[1]
  IC50: 30 µM

## Nc1ncnc2c1ncn2[C@@H]1O[C@H](COP(=O)(O)OP(=O)(O)OP(=O)(O)OP(=O)(O)O)[C@@H](O)[C@H]1O
[6]
  IC50: 9 µM

## COc1ccc(NP(=O)(O)OP(=O)(O)OP(=O)(O)OC[C@H]2O[C@@H](n3cnc4c(N)ncnc43)[C@H](O)[C@@H]2O)cc1
[1]
  IC50: 90 µM

## CC(C)C[C@H](N)C(=O)CCl
[4]
  inhibition: 0%
[5]
  inhibition: 16%

## Cc1ccc(NP(=O)(O)OP(=O)(O)OP(=O)(O)OP(=O)(O)OC[C@H]2O[C@@H](n3cnc4c(N)ncnc43)[C@H](O)[C@@H]2O)cc1
[1]
  IC50: 20 µM

## O=C(O)/C=C/c1ccc(O)cc1 [COUMARIC ACID]
[2]
  IC50: > 300 µg/mL

## Cc1ccc(NP(=O)(O)OP(=O)(O)OP(=O)(O)OC[C@H]2O[C@@H](n3cnc4c(N)ncnc43)[C@H](O)[C@@H]2O)cc1
[1]
  IC50: 200 µM

## O=C(CCl)[C@H](Cc1ccccc1)NOCc1ccccc1
[4]
  inhibition: 15%
[5]
  inhibition: 21%

## O=C(O)c1ccc(S(=O)(=O)Oc2ccc(/C=C/[N+](=O)[O-])cc2)cc1
[1]
  IC50: 100 µM

## C[C@H](NC(=O)c1ccc(S(=O)(=O)Oc2ccc(/C=C/[N+](=O)[O-])cc2)cc1)C(=O)N[C@@H](C)C(=O)OC(C)(C)C
[1]
  IC50: 100 µM

## CC(C)NC(=O)c1ccc(S(=O)(=O)Oc2ccc(/C=C/[N+](=O)[O-])cc2)cc1
[3]
  IC50: 1 µM
[1]
  IC50: > 100 µM

## NCCNC(=O)c1ccc(S(=O)(=O)Oc2ccc(/C=C/[N+](=O)[O-])cc2)cc1
[3]
  IC50: 5 µM
[1]
  IC50: > 5 µM

## CCCCNC(=O)c1ccc(S(=O)(=O)Oc2ccc(/C=C/[N+](=O)[O-])cc2)cc1
[3]
  IC50: 5 µM
[1]
  IC50: > 100 µM

## COc1cc(/C=C/[N+](=O)[O-])ccc1OS(=O)(=O)c1ccc(C(=O)OC[C@H]2O[C@@H](n3cnc4c(N)ncnc43)[C@H](O)[C@@H]2O)cc1
[1]
  IC50: 100 µM

## Nc1ncnc2c1ncn2[C@@H]1O[C@H](COP(=O)(O)OP(=O)(O)OP(=O)(O)Oc2ccccc2)[C@@H](O)[C@H]1O
[1]
  IC50: 10 µM

## Nc1ncnc2c1ncn2[C@@H]1O[C@H](COC(=O)c2ccc(S(=O)(=O)NCCCc3ccccc3)cc2)[C@@H](O)[C@H]1O
[1]
  IC50: 60 µM

## COc1cc(/C=C/[N+](=O)[O-])ccc1OS(=O)(=O)c1ccc(C(=O)O)cc1
[3]
  IC50: 3 µM
[1]
  IC50: 40 µM

## CC(C)C[C@H](NC(=O)OC(C)(C)C)C(=O)CBr
[4]
  inhibition: 69%
[5]
  inhibition: 65%

## C[C@H](NC(=O)[C@H](C)NC(=O)c1ccc(S(=O)(=O)Oc2ccc(/C=C/[N+](=O)[O-])cc2)cc1)C(=O)O
[1]
  IC50: 40 µM

## Nc1ncnc2c1ncn2[C@@H]1O[C@H](COC(=O)c2ccc(S(N)(=O)=O)cc2)[C@@H](O)[C@H]1O
[1]
  IC50: 100 µM

## COC(=O)c1ccc(S(=O)(=O)Oc2ccc(/C=C/[N+](=O)[O-])cc2)cc1
[3]
  IC50: 2 µM
[1]
  IC50: > 100 µM

## CNC(=O)c1ccc(S(=O)(=O)Oc2ccc(/C=C/[N+](=O)[O-])cc2)cc1
[1]
  IC50: > 40 µM

## C[C@H](NC(=O)OCc1ccccc1)C(=O)CCl
[4]
  inhibition: 44%
[5]
  inhibition: 71%

## Nc1ncnc2c1ncn2[C@@H]1O[C@H](COC(=O)c2ccc(S(=O)(=O)Oc3ccc(/C=C/[N+](=O)[O-])cc3)cc2)[C@@H](O)[C@H]1O
[1]
  IC50: > 100 µM

## O=CN/C=C/c1ccc(O)cc1
[7]
  IC50: > 61.3 µM

## O=C(O)/C=C/c1cc(O)ccc1O
[7]
  IC50: 44.4 µM

## CC(C)(C)c1cc(/C=C(\C#N)C(N)=O)cc(C(C)(C)C)c1O
[7]
  IC50: 50 µM

## N#C/C(=C/c1cc(Cc2ccccc2)c(O)c(Cc2ccccc2)c1)C(N)=O
[7]
  IC50: 0.6 µM

## O=c1c(-c2ccc(O)cc2)c(CNC2=NCCS2)oc2cc(O)cc(O)c12
[7]
  IC50: 52 µM

## CS(=O)(=O)c1ccc(C(=O)OC[C@H]2O[C@@H](n3cnc4c(N)ncnc43)[C@H](O)[C@@H]2O)cc1
[1]
  IC50: 60 µM

## CC(C)C[C@H](NC(=O)[C@H](CCCNC(=N)N)NC(=O)[C@@H](N)CCCNC(=N)N)C(=O)N[C@@H](CCC(=O)O)C(=O)N[C@@H](CCC(=O)O)C(=O)N[C@@H](CCC(=O)O)C(=O)N[C@@H](CCC(=O)O)C(=O)N[C@@H](CCC(=O)O)C(=O)N[C@@H](C)C(=O)N[C@@H](Cc1c(F)c(F)c(O)c(F)c1F)C(=O)NCC(=O)O (stereo in doubt; 187L)
[7]
  Ki: 4 µM

## CC(=O)NCCNP(=O)(O)OP(=O)(O)OP(=O)(O)OC[C@H]1O[C@@H](n2cnc3c(N)ncnc32)[C@H](O)[C@@H]1O
[1]
  IC50: 30 µM

## O=C1c2c(O)cc(O)cc2O[C@H](c2ccc(O)c(O)c2)[C@H]1O [(+)-TAXIFOLIN]
[2]
  IC50: 3 ×10² ug/ml

## CC(=O)NC(Cc1ccc(NP(=O)(O)OP(=O)(O)OP(=O)(O)OP(=O)(O)OC[C@H]2O[C@@H](n3cnc4c(N)ncnc43)[C@H](O)[C@@H]2O)cc1)C(N)=O (some centres not stated)
[1]
  IC50: 100 µM

## Nc1ncnc2c1ncn2[C@@H]1O[C@H](COC(=O)c2ccc(S(=O)(=O)NCc3ccccc3)cc2)[C@@H](O)[C@H]1O
[1]
  IC50: 50 µM

## CC(=O)N[C@@H](C)C(=O)N[C@@H](C)C(=O)N[C@@H](Cc1ccccc1)C(=O)N[C@H](C(=O)CCl)[C@@H](C)O (Ac-AAFT-CH2Cl)
[4]
  inhibition: 10%
[5]
  inhibition: 4%

## CC(C)C[C@H](NC(=O)OCc1ccccc1)C(=O)C=[N+]=[N-]
[4]
  inhibition: 18%
[5]
  inhibition: 15%

## COc1cc(/C=C/C(=O)O)ccc1O [FERULATE]
[2]
  IC50: > 300 µg/mL

## O=C1C[C@@H](c2ccccc2)Oc2cc(O)cc(O)c21 [PINOCEMBRIN]
[2]
  IC50: > 5 ×10² ug/ml

## CC(=O)NC(Cc1ccc(OS(=O)(=O)c2ccc(C(=O)OC[C@H]3O[C@@H](n4cnc5c(N)ncnc54)[C@H](O)[C@@H]3O)cc2)cc1)C(N)=O (some centres not stated)
[1]
  IC50: 100 µM

## CSCc1oc2cc(O)cc(O)c2c(=O)c1-c1ccc(O)cc1
[7]
  IC50: 15.1 µM

## N#CC(C#N)=C1C(=O)Nc2cc(O)c(O)cc21
[7]
  IC50: 3 µM

## CC(=O)N/C=C/c1cc(O)ccc1O
[7]
  IC50: 15.5 µM

## Cc1ccc([C@@H]2CC(=O)c3c(O)cc(O)cc3O2)cc1
[2]
  IC50: 3 ×10¹ ug/ml

## CCOc1cc(/C=C(\C#N)C(N)=O)cc(CSc2ccccc2)c1O
[7]
  IC50: 0.4 µM

## CC(=O)NCC(=O)NCC(=O)N[C@@H](C)C(=O)N[C@@H](Cc1ccccc1)C(=O)CCl (Ac-GGAF-CH2Cl)
[4]
  inhibition: 0%
[5]
  inhibition: 5%

## CC(C)c1cc(/C=C(\C#N)C(N)=O)cc(C(C)C)c1O
[7]
  IC50: 1 µM

## O=c1c(-c2ccc(O)cc2)c(CN2CCCCC2)oc2cc(O)cc(O)c12
[7]
  IC50: 27.2 µM

## CC(C)C[C@H](NC(=O)[C@H](CCCNC(=N)N)NC(=O)[C@@H](N)CCCNC(=N)N)C(=O)N[C@@H](CCC(=O)O)C(=O)N[C@@H](CCC(=O)O)C(=O)N[C@@H](CCC(=O)O)C(=O)N[C@@H](CCC(=O)O)C(=O)N[C@@H](CCC(=O)O)C(=O)N[C@@H](C)C(=O)N[C@@H](Cc1c(F)c(F)c(O)c(F)c1F)C(=O)NCC(=O)O (stereo in doubt; 187D)
[7]
  Ki: 20 µM

## C[C@H](NC(=O)c1ccc(S(=O)(=O)Oc2ccc(/C=C/[N+](=O)[O-])cc2)cc1)C(=O)N[C@@H](C)C(=O)NCCN
[3]
  IC50: 20 µM
[1]
  IC50: 20 µM
